Test results from ChEMBL document CHEMBL4052715, “Discovery of novel DAPY-IAS hybrid derivatives as potential HIV-1 inhibitors using molecular hybridization based on crystallographic overlays” (Bioorg Med Chem, 2017).
Activity calls are given as the source filed them. No cut-off for these calls is given here.

Legend:
[1] = Cytotoxicity against human MT4 cells assessed as reduction in cell viability after 5 days by MTT assay; type: cell-based
[2] = system: Human immunodeficiency virus 1; assay: Inhibition of recombinant wild type HIV1 reverse transcriptase assessed as reduction in biotin-dUTP incorporation at 50 uM using poly(A)/oligo(dT)15 as template/primer by ELISA relative to control
[3] = Selectivity index, ratio of CC50 for human MT4 cells to EC50 for wild type HIV1 3B infected in human MT4 cells; type: toxicity, cell-based; details: read-out: Ratio CC50/EC50
[4] = system: Human immunodeficiency virus 1; assay: Antiviral activity against wild type HIV1 3B infected in human MT4 cells assessed as inhibition of virus-induced cytopathic effect after 5 days by MTT assay; type: functional, cell-based; details: Human immunodeficiency virus 1, 3B, MT4, 120 h
[5] = system: Human immunodeficiency virus 1; assay: Antiviral activity against HIV1 RES056 harboring reverse transcriptase K103N/Y181C double mutant infected in human MT4 cells assessed as inhibition of virus-induced cytopathic effect after 5 days by MTT assay; type: functional, cell-based
[6] = system: Human immunodeficiency virus 2; assay: Antiviral activity against HIV2 ROD harboring reverse transcriptase K103N/Y181C double mutant infected in human MT4 cells assessed as inhibition of virus-induced cytopathic effect after 5 days by MTT assay; type: functional, cell-based; details: ISOLATE ROD

**Q.** For Cc1cc(C#N)cc(C)c1Oc1nc(Nc2ccc(C#N)cc2)nc(N)c1Br [ETRAVIRINE], which CC50 at 120 h [1] is on record?
**A.** 2.15 µM

**Q.** And the inhibition [2]?
**A.** 93.3%

**Q.** And the selectivity ratio [3]?
**A.** 541

**Q.** And the EC50 [4]?
**A.** 0.004 µM

**Q.** Which results are given for Cc1cc(C)cc(S(=O)(=O)Nc2ccnc(Nc3ccc(C#N)cc3)n2)c1?
**A.** CC50 at 120 h [1]: 173 µM; inhibition [5]: inactive; inhibition [6]: inactive; selectivity ratio [3]: 28; EC50 [4]: 6.21 µM

**Q.** With N#Cc1ccc(Nc2cc(NS(=O)(=O)c3cc(C(F)(F)F)cc(C(F)(F)F)c3)ccn2)cc1 as the compound, how does the CC50 at 120 h [1] read?
**A.** 62.2 µM

**Q.** What about the inhibition [5] of the same compound?
**A.** inactive

**Q.** What about the inhibition [6] of the same compound?
**A.** inactive

**Q.** What about the selectivity ratio [3] of the same compound?
**A.** < 1

**Q.** What about the EC50 [4] of the same compound?
**A.** > 62.2 µM

**Q.** With CC(C)(C)c1ccc(S(=O)(=O)Nc2ccnc(Nc3ccc(C#N)cc3)n2)cc1 as the compound, how does the CC50 at 120 h [1] read?
**A.** 30.3 µM

**Q.** And the inhibition [5]?
**A.** inactive

**Q.** What about the inhibition [6] of the same compound?
**A.** inactive

**Q.** And the selectivity ratio [3]?
**A.** 4

**Q.** And the EC50 [4]?
**A.** 7.52 µM

**Q.** For N#Cc1ccc(Nc2nccc(NS(=O)(=O)c3ccc(C(F)(F)F)cc3)n2)cc1, which CC50 at 120 h [1] is on record?
**A.** 54.7 µM

**Q.** And the inhibition [5]?
**A.** inactive

**Q.** What about the inhibition [6] of the same compound?
**A.** inactive

**Q.** What about the selectivity ratio [3] of the same compound?
**A.** < 1

**Q.** And the EC50 [4]?
**A.** > 54.7 µM

**Q.** Which results are given for N#Cc1ccc(Nc2nccc(NS(=O)(=O)c3cc(F)cc(F)c3)n2)cc1?
**A.** CC50 at 120 h [1]: 93.9 µM; inhibition [5]: inactive; inhibition [6]: inactive; selectivity ratio [3]: 2; EC50 [4]: 47 µM

**Q.** For CC(C)c1cc(C(C)C)c(S(=O)(=O)Nc2ccnc(Nc3ccc(C#N)cc3)c2)c(C(C)C)c1, which CC50 at 120 h [1] is on record?
**A.** 11.5 µM

**Q.** And the inhibition [5]?
**A.** inactive

**Q.** And the inhibition [6]?
**A.** inactive

**Q.** What about the selectivity ratio [3] of the same compound?
**A.** < 1

**Q.** And the EC50 [4]?
**A.** > 11.5 µM

**Q.** With Nc1ccn([C@@H]2CS[C@H](CO)O2)c(=O)n1 [LAMIVUDINE] as the compound, how does the CC50 at 120 h [1] read?
**A.** > 87.2 µM

**Q.** What about the selectivity ratio [3] of the same compound?
**A.** > 34

**Q.** And the EC50 [4]?
**A.** 2.54 µM

**Q.** Which CC50 at 120 h [1] does the source give for N#Cc1ccc(Nc2cc(NS(=O)(=O)c3ccc(C#N)cc3)ccn2)cc1 here?
**A.** 93.4 µM

**Q.** What about the inhibition [5] of the same compound?
**A.** inactive

**Q.** And the inhibition [6]?
**A.** inactive

**Q.** What about the selectivity ratio [3] of the same compound?
**A.** < 1

**Q.** What about the EC50 [4] of the same compound?
**A.** > 93.4 µM

**Q.** For N#Cc1ccc(Nc2cc(NS(=O)(=O)c3ccc4ccccc4c3)ccn2)cc1, which CC50 at 120 h [1] is on record?
**A.** 30 µM

**Q.** And the inhibition [5]?
**A.** inactive

**Q.** What about the inhibition [6] of the same compound?
**A.** inactive

**Q.** What about the selectivity ratio [3] of the same compound?
**A.** < 1

**Q.** And the EC50 [4]?
**A.** > 30 µM

**Q.** For Cc1cc(C)c(S(=O)(=O)Nc2ccnc(Nc3ccc(C#N)cc3)n2)c(C)c1, which CC50 at 120 h [1] is on record?
**A.** 4.4 µM

**Q.** What about the inhibition [5] of the same compound?
**A.** inactive

**Q.** What about the inhibition [6] of the same compound?
**A.** inactive

**Q.** What about the selectivity ratio [3] of the same compound?
**A.** < 1

**Q.** What about the EC50 [4] of the same compound?
**A.** > 4.4 µM

**Q.** For CC(C)c1cc(C(C)C)c(S(=O)(=O)Nc2ccnc(Nc3ccc(C#N)cc3)n2)c(C(C)C)c1, which CC50 at 120 h [1] is on record?
**A.** 17.4 µM

**Q.** And the inhibition [5]?
**A.** inactive

**Q.** And the inhibition [6]?
**A.** inactive

**Q.** And the selectivity ratio [3]?
**A.** < 1

**Q.** And the EC50 [4]?
**A.** > 17.4 µM

**Q.** With CC(C)(C)c1ccc(S(=O)(=O)Nc2ccnc(Nc3ccc(C#N)cc3)c2)cc1 as the compound, how does the CC50 at 120 h [1] read?
**A.** 29.3 µM

**Q.** And the inhibition [5]?
**A.** inactive

**Q.** What about the inhibition [6] of the same compound?
**A.** inactive

**Q.** And the selectivity ratio [3]?
**A.** 6

**Q.** What about the EC50 [4] of the same compound?
**A.** 4.92 µM

**Q.** Which CC50 at 120 h [1] does the source give for Cc1ccc(S(=O)(=O)Nc2ccnc(Nc3ccc(C#N)cc3)c2)cc1 here?
**A.** 14 µM

**Q.** And the inhibition [5]?
**A.** inactive

**Q.** And the inhibition [2]?
**A.** 5.7%

**Q.** And the inhibition [6]?
**A.** inactive

**Q.** And the selectivity ratio [3]?
**A.** 9

**Q.** What about the EC50 [4] of the same compound?
**A.** 1.48 µM

**Q.** With O=c1[nH]cnc2c1ncn2[C@H]1CC[C@@H](CO)O1 [DIDANOSINE] as the compound, how does the CC50 at 120 h [1] read?
**A.** > 212 µM

**Q.** What about the selectivity ratio [3] of the same compound?
**A.** > 3

**Q.** What about the EC50 [4] of the same compound?
**A.** 76 µM

**Q.** Which CC50 at 120 h [1] does the source give for N#Cc1ccc(Nc2nccc(NS(=O)(=O)c3ccc4ccccc4c3)n2)cc1 here?
**A.** 77.1 µM

**Q.** And the inhibition [5]?
**A.** inactive

**Q.** What about the inhibition [6] of the same compound?
**A.** inactive

**Q.** What about the selectivity ratio [3] of the same compound?
**A.** 2

**Q.** What about the EC50 [4] of the same compound?
**A.** 48.9 µM

**Q.** With N#Cc1ccc(Nc2cc(NS(=O)(=O)c3ccc(F)cc3)ccn2)cc1 as the compound, how does the CC50 at 120 h [1] read?
**A.** 6.12 µM

**Q.** What about the inhibition [5] of the same compound?
**A.** inactive

**Q.** And the inhibition [6]?
**A.** inactive

**Q.** What about the selectivity ratio [3] of the same compound?
**A.** < 1

**Q.** And the EC50 [4]?
**A.** > 6.12 µM

**Q.** With Cc1cc(C)c(S(=O)(=O)Nc2ccnc(Nc3ccc(C#N)cc3)c2)c(C)c1 as the compound, how does the CC50 at 120 h [1] read?
**A.** 22.2 µM

**Q.** And the inhibition [5]?
**A.** inactive

**Q.** And the inhibition [6]?
**A.** inactive

**Q.** And the selectivity ratio [3]?
**A.** 4

**Q.** What about the EC50 [4] of the same compound?
**A.** 6.08 µM

**Q.** With Cc1cc(C)cc(S(=O)(=O)Nc2ccnc(Nc3ccc(C#N)cc3)c2)c1 as the compound, how does the CC50 at 120 h [1] read?
**A.** 5.06 µM

**Q.** What about the inhibition [5] of the same compound?
**A.** inactive

**Q.** And the inhibition [6]?
**A.** inactive

**Q.** And the selectivity ratio [3]?
**A.** < 1

**Q.** What about the EC50 [4] of the same compound?
**A.** > 5.06 µM

**Q.** For Cc1ccnc2c1NC(=O)c1cccnc1N2C1CC1, which inhibition [2] is on record?
**A.** 88%

**Q.** What does the source list for Cc1cc(C)cc(S(=O)(=O)c2c(C(N)=O)[nH]c3ccc(Cl)cc23)c1?
**A.** CC50 at 120 h [1]: 11 µM; selectivity ratio [3]: 4260; EC50 [4]: 0.0026 µM

**Q.** Which CC50 at 120 h [1] does the source give for Cc1ccc(S(=O)(=O)Nc2ccnc(Nc3ccc(C#N)cc3)n2)cc1 here?
**A.** 130 µM

**Q.** And the inhibition [5]?
**A.** inactive

**Q.** What about the inhibition [2] of the same compound?
**A.** 41.5%

**Q.** What about the inhibition [6] of the same compound?
**A.** inactive

**Q.** And the selectivity ratio [3]?
**A.** 80

**Q.** And the EC50 [4]?
**A.** 1.61 µM

**Q.** Which CC50 at 120 h [1] does the source give for N#Cc1ccc(Nc2nccc(NS(=O)(=O)c3cc(C(F)(F)F)cc(C(F)(F)F)c3)n2)cc1 here?
**A.** 115 µM

**Q.** What about the inhibition [5] of the same compound?
**A.** inactive

**Q.** And the inhibition [6]?
**A.** inactive

**Q.** What about the selectivity ratio [3] of the same compound?
**A.** < 1

**Q.** And the EC50 [4]?
**A.** > 115 µM

**Q.** Which CC50 at 120 h [1] does the source give for N#Cc1ccc(Nc2cc(NS(=O)(=O)c3cc(F)cc(F)c3)ccn2)cc1 here?
**A.** 28.6 µM

**Q.** What about the inhibition [5] of the same compound?
**A.** inactive

**Q.** What about the inhibition [6] of the same compound?
**A.** inactive

**Q.** What about the selectivity ratio [3] of the same compound?
**A.** < 1

**Q.** What about the EC50 [4] of the same compound?
**A.** > 28.6 µM

**Q.** For N#Cc1ccc(Nc2nccc(NS(=O)(=O)c3ccc(F)cc3)n2)cc1, which CC50 at 120 h [1] is on record?
**A.** 36.6 µM

**Q.** And the inhibition [5]?
**A.** inactive

**Q.** What about the inhibition [6] of the same compound?
**A.** inactive

**Q.** What about the selectivity ratio [3] of the same compound?
**A.** ≤ 4

**Q.** What about the EC50 [4] of the same compound?
**A.** ≥ 9.05 µM

**Q.** Which results are given for N#Cc1ccc(Nc2nccc(NS(=O)(=O)c3ccc(C#N)cc3)n2)cc1?
**A.** CC50 at 120 h [1]: 159 µM; inhibition [5]: inactive; inhibition [6]: inactive; selectivity ratio [3]: 4; EC50 [4]: 39.4 µM

**Q.** With N#Cc1ccc(Nc2cc(NS(=O)(=O)c3ccc(C(F)(F)F)cc3)ccn2)cc1 as the compound, how does the CC50 at 120 h [1] read?
**A.** 28 µM

**Q.** What about the inhibition [5] of the same compound?
**A.** inactive

**Q.** What about the inhibition [6] of the same compound?
**A.** inactive

**Q.** And the selectivity ratio [3]?
**A.** < 1

**Q.** And the EC50 [4]?
**A.** > 28 µM
